# Marks after values point to notes of the source that are not given here.
# System: Sprague-Dawley rats
# Test: Embryo-fetal developmental toxicity study in Sprague-Dawley rats (Example 3)
# Protocol: For this study, a total of 140 time-mated female rats (approximately 8 to 10 weeks of age) were obtained from Charles River Laboratories, Raleigh, North Carolina, and acclimated from the time of arrival until the time of dosing on GD 6. During the acclimation period, the animals were observed twice daily with respect to general health and any signs of disease. All animals were given a detailed clinical examination and body weights were recorded prior to selection. […] Food consumption was collected during the acclimation period.
# Animals received in-life and postmorten evaluations. […] All fetuses were given an external and visceral or skeletal examination.
# Detailed clinical observations were made daily from GD 6 through 20 (4 hours±1 hour postdose on dosing days).
# Food consumption for main study animals was measured and recorded on the corresponding body weight days and calculated for the same intervals.
# The placentae were examined grossly.
# The foci, if detected, were considered early resorptions, and data from this female were included in mean calculations
smiles,measurement,setting,value
"CC(C)NC(=O)COc1cccc(-c2nc(Nc3ccc4[nH]ncc4c3)c3ccccc3n2)c1 [belumosudil, 2-{3-[4-(1H-indazol-5-ylamino)-2-quinazolinyl]phenoxy}-N-(propan-2-yl) acetamide]","Discharge, Red, Vulva, times observed/animals","50 mg base/kg/day, GD 6-20",4/4
same,"Ear/portion of ear missing, Ear/left, times observed/animals","50 mg base/kg/day, GD 6-20",0/0
same,"Hair sparse, Abdominal region, times observed/animals","50 mg base/kg/day, GD 6-20",0/0
same,"Hair sparse, Cervical region, times observed/animals","50 mg base/kg/day, GD 6-20",8/1
same,"Hair sparse, Forefoot/left, times observed/animals","50 mg base/kg/day, GD 6-20",0/0
same,"Hair sparse, Forefoot/right, times observed/animals","50 mg base/kg/day, GD 6-20",0/0
same,"Hair sparse, Forelimb/left, times observed/animals","50 mg base/kg/day, GD 6-20",10/2
same,"Hair sparse, Forelimb/right, times observed/animals","50 mg base/kg/day, GD 6-20",10/2
same,"Hair sparse, Hind limb/left, times observed/animals","50 mg base/kg/day, GD 6-20",0/0
same,"Hair sparse, Hind limb/right, times observed/animals","50 mg base/kg/day, GD 6-20",0/0
same,"Hair sparse, Lumbar region, times observed/animals","50 mg base/kg/day, GD 6-20",0/0
same,"Hair sparse, Thoracic region, times observed/animals","50 mg base/kg/day, GD 6-20",7/1
same,"Scabbed area, Face, times observed/animals","50 mg base/kg/day, GD 6-20",0/0
same,"Scabbed area, Forelimb/right, times observed/animals","50 mg base/kg/day, GD 6-20",0/0
same,"Scabbed area, Tail, times observed/animals","50 mg base/kg/day, GD 6-20",0/0
same,"Scabbed area, Thoracic region, times observed/animals","50 mg base/kg/day, GD 6-20",0/0
same,"Tail missing - portion, times observed/animals","50 mg base/kg/day, GD 6-20",0/0
same,"Fetal Body Weight Females, % Difference From Control",150 mg base/kg/day,−7.7%
same,"Fetal Body Weight Genders Combined, % Difference From Control",150 mg base/kg/day,−7.3%
same,"Fetal Body Weight Males, % Difference From Control",150 mg base/kg/day,−8.0%
same,Maternal Body Weight Change GD 6-9,150 mg base/kg/day,−4.2^b g
same,Maternal Body Weight Change GD 6-18,150 mg base/kg/day,55.4^b g
same,Maternal Body Weight Change GD 6-20,150 mg base/kg/day,97.1^b g
same,Maternal Body Weight Change GD 18-20,150 mg base/kg/day,41.8^b g
same,Maternal Body Weight GD 9,150 mg base/kg/day,215.8^b g
same,Maternal Body Weight GD 12,150 mg base/kg/day,232.1^b g
same,Maternal Body Weight GD 15,150 mg base/kg/day,244.0^b g
same,Maternal Body Weight GD 18,150 mg base/kg/day,275.3^b g
same,Maternal Body Weight GD 20,150 mg base/kg/day,317.0^b g
same,Maternal Food Consumption GD 6-9,150 mg base/kg/day,10.0^b
same,Maternal Food Consumption GD 6-18,150 mg base/kg/day,15.4^b
same,Maternal Food Consumption GD 6-20,150 mg base/kg/day,17.4^b
same,Maternal Food Consumption GD 18-20,150 mg base/kg/day,29.4
same,Mean Fetal Body Weight Females,150 mg base/kg/day,3.72 g
same,Mean Fetal Body Weight Genders Combined,150 mg base/kg/day,3.82 g
same,Mean Fetal Body Weight Males,150 mg base/kg/day,3.91 g
same,"Adjusted Final Body Weight, Mean",150 mg base/kg/day (N = 20),252.7^b g
same,"Adjusted Weight Change From Day 6, Mean",150 mg base/kg/day (N = 20),32.8^b
same,"Final Body Weight, Mean",150 mg base/kg/day (N = 20),317.0^b g
same,"Gravid Uterine Weight, Mean",150 mg base/kg/day (N = 20),64.3 g
same,"Discharge, Brown, Vulva, times observed/animals","150 mg base/kg/day, GD 6-20",4/4
same,"Discharge, Red, Vulva, times observed/animals","150 mg base/kg/day, GD 6-20",1/1
same,"Ear/portion of ear missing, Ear/left, times observed/animals","150 mg base/kg/day, GD 6-20",15/1
same,"Hair sparse, Abdominal region, times observed/animals","150 mg base/kg/day, GD 6-20",0/0
same,"Hair sparse, Cervical region, times observed/animals","150 mg base/kg/day, GD 6-20",0/0
same,"Hair sparse, Forefoot/left, times observed/animals","150 mg base/kg/day, GD 6-20",27/3
same,"Hair sparse, Forefoot/right, times observed/animals","150 mg base/kg/day, GD 6-20",23/3
same,"Hair sparse, Forelimb/left, times observed/animals","150 mg base/kg/day, GD 6-20",14/2
same,"Hair sparse, Forelimb/right, times observed/animals","150 mg base/kg/day, GD 6-20",30/3
same,"Hair sparse, Hind limb/left, times observed/animals","150 mg base/kg/day, GD 6-20",6/1
same,"Hair sparse, Hind limb/right, times observed/animals","150 mg base/kg/day, GD 6-20",6/1
same,"Hair sparse, Lumbar region, times observed/animals","150 mg base/kg/day, GD 6-20",12/1
same,"Hair sparse, Thoracic region, times observed/animals","150 mg base/kg/day, GD 6-20",12/2
same,"Scabbed area, Face, times observed/animals","150 mg base/kg/day, GD 6-20",0/0
same,"Scabbed area, Forelimb/right, times observed/animals","150 mg base/kg/day, GD 6-20",0/0
same,"Scabbed area, Tail, times observed/animals","150 mg base/kg/day, GD 6-20",13/2
same,"Scabbed area, Thoracic region, times observed/animals","150 mg base/kg/day, GD 6-20",0/0
same,"Tail missing - portion, times observed/animals","150 mg base/kg/day, GD 6-20",11/1
same,NOAEL for fetal developmental toxicity,pregnant rats,50 mg base/kg/day
same,NOAEL for maternal toxicity,pregnant rats,15 mg base/kg/day
same,mortality,"rat, in vivo",No treatment related mortality
